From patent US20130237478A1, “COMPOSITIONS AND METHODS FOR TREATMENT OF PERIPHERAL VASCULAR DISEASE” (TARIX PHARMACEUTICALS LTD., priority 2012, published 2013)

Assays:
[1] = test system: Transient middle cerebral artery occlusion (tMCAO); assay: Forelimb placement test after tMCAO stroke; type: in vivo, rats; settings: 50 μg/kg by Alzet pump; particularly on Days 21 and 35
Protocol: (§1) For the purposes of this example, Transient middle cerebral artery occlusion (tMCAO) procedure Day is defined as “Day 1” in this study. On the day of surgery anesthesia were induced with 4% isoflurane in a mixture of 70% N2O and 30% O2 and maintained with 1.5-2% isoflurane.
(§2) The tMCAO procedures were performed according to the method described R. Schmid-Elsaesser et al. Briefly, the right CCA (Common Carotid Artery) was exposed through a midline neck incision and carefully dissected free from surrounding nerves and fascia—from its bifurcation to the base of the skull. The occipital artery branches of the ECA (External Carotid Artery) were then isolated, and these branches were dissected and coagulated. The ECA was dissected further distally and coagulated along with the terminal lingual and maxillary artery branches, which was then divided. The ICA (Internal Carotid Artery) was isolated and carefully separated from the adjacent vagus nerve, and the pterygopalatine artery was ligated close to its origin with a 5-0 nylon suture (SMI, Belgium). […]
For the forelimb-placing test, the rat was held close to a tabletop and the rat's ability to place the forelimb on the tabletop in response to whisker, visual, tactile, or proprioceptive stimulation was scored (0=normal, 12=maximally impaired). […]

[2] = test system: Transient middle cerebral artery occlusion (tMCAO); assay: Body swing test after tMCAO stroke; type: in vivo, rats; settings: 50 μg/kg by Alzet pump
Protocol: as §1
(§3) The tMCAO procedures were performed according to the method described R. Schmid-Elsaesser et al. Briefly, the right CCA (Common Carotid Artery) was exposed through a midline neck incision and carefully dissected free from surrounding nerves and fascia—from its bifurcation to the base of the skull. The occipital artery branches of the ECA (External Carotid Artery) were then isolated, and these branches were dissected and coagulated. The ECA was dissected further distally and coagulated along with the terminal lingual and maxillary artery branches, which was then divided. The ICA (Internal Carotid Artery) was isolated and carefully separated from the adjacent vagus nerve, and the pterygopalatine artery was ligated close to its origin with a 5-0 nylon suture (SMI, Belgium). Next, a 4-0 silk suture was tied loosely around the mobilized ECA stump, and a 4 cm length of 4-0 monofilament nylon suture (the tip of the suture was blunted by using a flame, and the suture was coated with polylysine, prior to insertion) was inserted through the proximal ECA into the ICA and thence into the circle of Willis, effectively occluding the MCA. The surgical wound was closed and the animals were returned to their cages to recover from anesthesia. One hour and a half after occlusion rats were re-anesthetized, the monofilament was withdrawn to allow reperfusion, the surgical wound was closed and rats were returned to their cages.
Animals were subjected to a modified Modified Neurological Rating Scale (mNRS) at 24 hours post reperfusion. Only animals with an overall score of ≧10 were included in this study. Animals were allocated into the test groups, according to the mNRS results on day 2, in order to have similar distribution of rats performance between groups. Starting on day 2, 24 hours post-surgery, animals in groups 4, 5 and 7 were implanted subcutaneously with an osmotic Alzet pump and treated with either 500 μg/kg TXA127, 500 μg/kg PanCyte, or 50 μg/kg Linear PanCyte. Animals in groups 2, 3 and 6 received 500 μg/kg or 1,000 μg/kg TXA127 or 500 μg/kg PanCyte, administered subcutaneously via daily injection. Animals in group 1 were treated with a daily subcutaneous injection of a PBS (vehicle).
Each rat was held approximately one inch from the base of its tail. It was then elevated to an inch above a surface of a table. The rat was held in the vertical axis, defined as no more than 10° to either the left or the right side. A swing was recorded whenever the rat moves its head out of the vertical axis to either side. Before attempting another swing, the rat must return to the vertical position for the next swing to be counted. Twenty (20) total swings were counted. A normal rat typically has an equal number of swings to either side. Following focal ischemia, the rat tends to swing to the contralateral side (left side in this case). Body swing scores are expressed as a percentage of […] over total swings.

[3] = test system: Transient middle cerebral artery occlusion (tMCAO); assay: Stepping test (forelimb akinesia) after tMCAO stroke; type: in vivo, rats
Protocol: as §1
as §3, with “One hour and a half after occlusion rats were re-anesthetized, the monofilament was withdrawn to allow reperfusion, the surgical wound was closed and rats were returned to their cages.” left out
Animals were tested for forelimb akinesia in a stepping test (ST). The animal was held with its hind limbs fixed with one hand and the forelimb not to be monitored with the other, while the unrestrained fore-paw touches the table. The number of adjusting steps are counted while the animal is moved sideways along the table surface (85 cm in approximately five seconds), in the forehand & backhand direction for both forelimbs. […]

[4] = test system: Transient middle cerebral artery occlusion (tMCAO); assay: tMCAO stroke model, overall comparison of results; type: in vivo, rats; settings: Linear PanCyte dose at least ten times lower than PanCyte
Description: Without wishing to be held to a particular theory, it is possible that angiotensin-(1-7) peptides or functional equivalents, analogs or derivatives, and/or angiotensin-(1-7) receptor agonists such as TXA127, PanCyte and Linear PanCyte act to stimulate blood flow and tissue repair through angiogenesis. Such a mode of action would be extremely beneficial in a critical limb ischemia scenario since these conditions have deprivation of blood supply as a major source of pathology.
as §1
as §2, with “divided.” for “divided. The ICA (Internal Carotid Artery) was isolated and carefully separated from the adjacent vagus nerve, and the pterygopalatine artery was ligated close to its origin with a 5-0 nylon suture (SMI, Belgium).”

[5] = Body weight of mice in hind limb ischemia studies; type: in vivo, Balb/c mice; settings: Example 1; 500 μg/kg SC daily; throughout the study (49 days)
Protocol: Body weight of animals was measured before the surgery and once weekly thereafter.
The model and procedures used for this example is the same as for those in Examples 1 and 2, unless otherwise specified.

Row | Compound | forelimb placement performance compared with other groups [1] | body swing performance ([2]; by Day 21) | body swing performance vs vehicle ([2]; by Day 28) | stepping test results compared with TXA127 or PanCyte ([3]; 50 μg/kg by Alzet pump) | stepping test performance vs vehicle ([3]; all experimental conditions (Table 22), by Day 28 post-surgery) | results in stroke model compared with PanCyte [4] | body weight vs vehicle [5]
1 | Asp^1-Arg^2-Val^3-Ser^4-Ile^5-His^6-Cys^7 (SEQ ID NO:5) (DRVSIHC) [Linear PanCyte] | best performance | showed improvement | significant improvement in performance | substantially equivalent to ten times as much TXA127 or PanCyte | significantly improved the performance | at least as impressive as PanCyte and in many cases even more impressive results | –
2 | CC[C@H](C)[C@H](NC(=O)[C@H](Cc1ccc(O)cc1)NC(=O)[C@@H](NC(=O)[C@H](CCCNC(=N)N)NC(=O)[C@@H](N)CC(=O)O)C(C)C)C(=O)N[C@@H](Cc1c[nH]cn1)C(=O)N1CCC[C@H]1C(=O)O [TXA127, Asp^1-Arg^2-Val^3-Tyr^4-Ile^5-His^6-Pro^7 (SEQ ID NO: 1)] | – | – | – | – | – | – | no statistically significant differences
